Here are results for 2 compounds from patent US4248892A, “Antifibrotic agent” (Takeda Chemical Industries, Ltd., priority 1978, dated 1981).

Data set [1] deals with T1, protocollagen prolyl hydroxylase (Gallus gallus, UniProt P16924).
T1 construct: 190 chick embryos (14 days old) were homogenized; from tissue; host or cells: whole 14-day chick embryos; Triton X-100 extract, ammonium sulfate, calcium phosphate gel and DEAE-cellulose fractions
T1 sequence (P16924 1-516): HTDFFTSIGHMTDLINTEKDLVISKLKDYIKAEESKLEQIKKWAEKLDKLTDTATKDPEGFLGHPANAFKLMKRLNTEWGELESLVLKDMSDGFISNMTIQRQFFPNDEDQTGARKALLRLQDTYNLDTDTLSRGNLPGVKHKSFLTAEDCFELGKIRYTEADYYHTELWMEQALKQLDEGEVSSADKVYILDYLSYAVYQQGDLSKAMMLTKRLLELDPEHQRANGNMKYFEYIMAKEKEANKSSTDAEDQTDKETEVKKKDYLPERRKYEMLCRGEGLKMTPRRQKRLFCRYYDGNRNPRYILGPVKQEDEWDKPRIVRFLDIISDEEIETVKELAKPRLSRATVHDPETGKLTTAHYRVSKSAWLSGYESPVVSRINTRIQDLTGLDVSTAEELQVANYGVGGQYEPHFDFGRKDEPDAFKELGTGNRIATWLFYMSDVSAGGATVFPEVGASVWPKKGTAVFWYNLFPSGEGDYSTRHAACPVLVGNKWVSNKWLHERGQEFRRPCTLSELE
T1 sequence (P09102 23-515 partner): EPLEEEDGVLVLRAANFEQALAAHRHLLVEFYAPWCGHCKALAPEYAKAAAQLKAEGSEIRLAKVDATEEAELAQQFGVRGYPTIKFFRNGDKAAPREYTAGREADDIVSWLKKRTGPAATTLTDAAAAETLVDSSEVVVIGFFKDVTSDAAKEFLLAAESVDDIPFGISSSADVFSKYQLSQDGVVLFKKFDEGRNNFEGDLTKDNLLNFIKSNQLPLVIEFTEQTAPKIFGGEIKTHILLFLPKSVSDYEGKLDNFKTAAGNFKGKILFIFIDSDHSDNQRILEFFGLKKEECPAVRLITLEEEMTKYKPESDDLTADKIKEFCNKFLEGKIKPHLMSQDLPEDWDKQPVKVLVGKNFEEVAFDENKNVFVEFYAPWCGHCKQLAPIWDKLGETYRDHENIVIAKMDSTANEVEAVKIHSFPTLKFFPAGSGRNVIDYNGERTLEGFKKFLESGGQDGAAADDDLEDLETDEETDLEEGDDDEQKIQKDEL
Description: Activity to inhibit protocollagen prolyl hydroxylase. It counts as biochemical, chick embryos. To be noted: concentration required for 50% inhibition of enzymic activity; pH 7.8, 37° C., 30 minutes; substrate (Pro-Pro-Gly)5.4H2O; read-out: ID50 (the source's name) (converted). How it is done: Method for the preparation of protocollagen prolyl hydroxylase: The method of K.I. Kivirikko et al and that of J. Halme et al were partially modified. [cf. Journal of Biological Chemistry 242, 4007 (1967) and Biochimica et Biophysica Acta 198, 460 (1970)]. Thus, 190 chick embryos (14 days old) were homogenized in 1600 ml of NaCl-GlycineTris[tris(hydroxymethyl)aminomethane]-HCl buffer containing 0.1% Triton [polyethylene glycol p-isooctylphenyl ether] X-100 (pH 7.5) and centrifuged. […]
Thus, 1.5 ml of a reaction mixture containing 50 μmols of Tris-HCl buffer (pH 7.8), 0.1 μmol of 1-^14 C-α-ketoglutarate (0.016 μ Ci), 0.5 μmol of ascorbate, 0.1 μmol of ferrous ammonium sulfate, 4.0 mg of heat denatured bovine serum albumin, 0.1 mg of crystalline bovine liver catalase, 0.15 μmol of dithiothreitol, 0.15 mg of (Pro-Pro-Gly)5.4H2 O, 0.5 ml of the enzyme solution and 0.1 ml of either methanol or methanol solution containing an inhibitor was put in a sealed test tube in which a filter paper impregnated with Hyamine (Hydroxide and Hyamine 10-X (Packard Instrument Co.)] had been hung and the reaction was carried out under shaking at 37° C. for 30 minutes. The reaction was terminated by the addition of 0.5 ml of 25% trichloroacetic acid and the enzymic activity was determined by measuring the radioactivity of the released ^14 CO2 trapped in filterpaper. […]

Data set [2] relates to collagen biosynthesis. Description: Inhibition of collagen biosynthesis in normal rats (uteri of 17-β-estradiol-stimulated immature rats). Particulars: i.p. 100 mg/kg at intervals of 24 hours, 6 days; for inhibition at 100 mg/kg: Rattus norvegicus, ip, vs 17-β-estradiol control. The class given is in vivo, SD rats (female, 3 weeks old). How it is done: According to the partially modified method of R.A. Salvador et al [Archives of Biochemistry and Biophysics 174, 382 (1976)], the following experiment was carried out with SD rats (female, 3 weeks old) in groups of 4 animals.
The test compound suspended in 4% gum arabic-physiological saline was intraperitoneally administered to rats in doses of 100 mg/kg at intervals of 24 hours for 6 consecutive days.
During the final 3 days, 5 μg/rat of 17-β-estradiol in 5% ethanol-saline solution or 5% ethanol-saline solution was administered one hour after the administration of compound (I). On the 7th day, each rat was killed and the uterus was excised, washed with ethanol-diethylether, dried at 60° C. for 2 hours and weighted to know the dry weight. The dry preparation was hydrolyzed with 3 ml of 6N-HCl at 110° C. for 22 hours, after which it was concentrated to dryness to remove the hydrochloric acid. The total amino acid in the hydrolyzate was determined by ninhydrin assay and from this value the total protein content of uterus was calculated as leucine equivalent. The amount of hydroxyproline in the hydrolyzate was also measured by the method of Blumenkratz et al [Analytical Biochemistry 63, 331 (1975)] and multiplied by 7.23 to obtain the amount of collagen. The amount of noncollagenous protein was calculated by substracting the amount of collagen from the total amount of protein.
The inhibitory activity of this compound on the synthesis of collagen and noncollagenous protein in the uteri of 17-β-estradiol-stimulated immature rats are shown as % reductions in the amounts of collagen and noncollagenous protein. Inhibition rate is calculated by the equation described in the legend of Table 2.

The nature of another data set: Acute toxicity. On the set-up: species or system male 4-week-old mice. Particulars: mouse, in vivo, ip; intraperitoneal; mice, groups of 5; 8 days observation. The method, then:
Protocatechuic acid was intraperitoneally administered to male 4-week-old mice in groups of 5 animals and the animals were kept under observation for 8 days. The LD50 values thus found was >400 mg/kg for it.

Data set [3] concerns collagen biosynthesis. Nature of the data set: Hydroxyproline content of liver in carbon tetrachloride-induced hepatic cirrhosis. It counts as in vivo, Male Sprague-Dawley rats. To be noted: CCl4 + compound, i.p. 100 mg/kg three times weekly, total 10 doses. How it is done: (§1) Male Sprague-Dawley rats weighting approximately 150 g each were divided into three groups. The first group received both 10% CCl4 -olive oil mixture (1 ml/rat) and compound (I) (100 mg/kg) intraperitoneally three times weekly for a total 10 doses. The second and third groups received 10% CCl4 -olive oil mixture (1 ml/rat) and olive oil (1 ml/rat) intraperitoneally three times weekly for a total 10 doses, respectively. The rats were sacrificed two days after the last injection and the livers were immediately removed for the assays.
Hydroxyproline content of the livers was measured in a 6N-HCl hydrolysate (110° C., 22h) by the method of Blumenkrantz et al.
(§2) The specific activity of protocollagen prolyl hydroxylase and hydroxyproline content in the liver treated with the compound as shown in Table 3.

In data set [4] the test system is protocollagen prolyl hydroxylase. Description: Protocollagen prolyl hydroxylase activity in liver in carbon tetrachloride-induced hepatic cirrhosis. Particulars: CCl4 + compound, i.p. 100 mg/kg three times weekly, total 10 doses, dpm = decay per minute. The class given is in vivo, Male Sprague-Dawley rats. The method, then: as §1
A 10% homogenate of the liver was prepared in 20 m mol/l Tris-HCl buffer (pH 7 5) containing 0.2 mol/l NaCl, 0.1 mol/l glycine, 5×10^-5 mol/l 1,4-dithiothreitol, and 0.1% Triton X-100 using a Polytron homogenizer. The homogenate was centrifuged at 15,000 g for 20 minutes and the clear supernatant was assayed for protocollagen prolyl hydroxylase activity by the method of Hutton et al [Analytical Biochemistry 16, 384 (1966)]. The protein content of the homogenate was measured by the method of Lowry et al [Journal of Biological Chemistry 193, 265 (1951)] using bovine serum albumin as the standard.
as §2

The mark [5] stands for this setting: 17-β-estradiol + compound, uterus, 7th day.

As usually defined, the inhibition is the relative decrease from the control value, in per cent. As a reminder, the LD50 is the dose at which mortality reaches 50%. High values mean lower toxicity, low ones greater toxicity.

Each structure is given as a SMILES string. Like-named read-outs stand apart in the source and are kept apart here.

For the compound `O=C(O)Cc1ccc(O)c(O)c1` [Homoprotocatechnic acid, homoprotocatechuic acid], in data set [1], the IC50 is 17.8 µM.
Take `O=C(O)c1ccc(O)c(O)c1` [Protocatechuic acid, protocatechuic acid]: in the data set with collagen biosynthesis [2] (17-β-estradiol + compound), the “Body weight of rats, 7th day” value is given as 75 ± 3 g. Moreover, in the data set on collagen biosynthesis [2] (setting [5]), the Total collagen came to 3.31 ± 0.37 mg/uterus and the Total protein was found to be 25.4 ± 2.2 mg/uterus. In the data set on collagen biosynthesis [2] (uterus, read-out: Inhibition rate, collagen), the inhibition at 100 mg/kg worked out at 85%. For the same compound, the inhibition at 100 mg/kg in the data set with collagen biosynthesis [2] (uterus, read-out: Inhibition rate, noncollagenous protein) is 15%. In data set [1], the IC50 is 19.5 µM. Besides, in the data set “Acute toxicity”, the LD50 at 192 h is above 400 mg/kg. Moreover, in the data set with collagen biosynthesis [3], the Hydroxyproline is 0.70 ± 0.09 μg/mg of liver. Also, the Prolyl hydroxylase in data set [4] was 1463 ± 236 dpm/mg of protein.
